Publication PMC3974779, “Pterostilbene-Isothiocyanate Conjugate Suppresses Growth of Prostate Cancer Cells Irrespective of Androgen Receptor Status” (PLoS ONE, 2014)

Legend:
hAR in PC-3 cells = molecular target: T1, hAR in PC-3 cells (Homo sapiens, UniProt P10275); test: AR transactivation luciferase assay (pSG5-hAR + pMMTV-luc); format: cell-based; conditions: 10 nM DHT
T1 construct: full length hAR in pSG5 expression vector; expressed in transfected cells; host or cells: PC-3 (AR-negative)
T1 sequence (P10275 1-920): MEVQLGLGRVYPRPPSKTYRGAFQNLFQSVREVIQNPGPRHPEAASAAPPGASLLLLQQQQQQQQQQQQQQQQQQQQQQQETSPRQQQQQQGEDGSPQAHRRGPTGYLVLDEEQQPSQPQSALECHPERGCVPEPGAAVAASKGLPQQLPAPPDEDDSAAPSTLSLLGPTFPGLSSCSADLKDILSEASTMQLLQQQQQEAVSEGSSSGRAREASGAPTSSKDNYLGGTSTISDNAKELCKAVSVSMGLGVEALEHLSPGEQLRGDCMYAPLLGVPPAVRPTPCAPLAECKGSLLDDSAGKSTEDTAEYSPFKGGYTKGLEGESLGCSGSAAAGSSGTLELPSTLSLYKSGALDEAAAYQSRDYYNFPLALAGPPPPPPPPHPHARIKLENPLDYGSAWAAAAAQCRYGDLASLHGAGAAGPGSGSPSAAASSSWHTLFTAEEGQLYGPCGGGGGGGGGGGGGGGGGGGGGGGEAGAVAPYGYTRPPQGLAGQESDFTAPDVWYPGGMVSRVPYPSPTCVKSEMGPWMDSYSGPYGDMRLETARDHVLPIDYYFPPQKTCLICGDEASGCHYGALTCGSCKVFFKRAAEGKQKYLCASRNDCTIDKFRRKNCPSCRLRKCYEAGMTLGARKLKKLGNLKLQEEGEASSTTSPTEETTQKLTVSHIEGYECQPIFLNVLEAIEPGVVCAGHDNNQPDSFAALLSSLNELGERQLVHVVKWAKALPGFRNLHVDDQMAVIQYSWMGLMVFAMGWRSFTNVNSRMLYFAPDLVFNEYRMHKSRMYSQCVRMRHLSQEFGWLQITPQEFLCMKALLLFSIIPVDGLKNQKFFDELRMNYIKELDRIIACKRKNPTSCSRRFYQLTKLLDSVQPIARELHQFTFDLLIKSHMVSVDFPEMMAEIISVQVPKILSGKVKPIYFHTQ
Protocol: The LNCaP cells were grown and transiently transfected with pMMTV-neomycin-luciferase plasmid (300 ng/10^5 cells) in RPMI media supplemented with 10% FBS using polyfect transfection reagent (Qiagen, CA, USA) according to manufacturer’s instructions. Then, 24 h after transfection, the cell culture media were changed with media containing 5% charcoal-stripped FBS to reduce the contaminating steroids from the serum and incubated for an additional day before initiating the treatments. In case of PC-3 cells, they were similarly transfected, but in addition to pMMTV-neomycin-luciferase construct, they were also transfected with pSG5-hAR-puro plasmid (full length hAR in pSG5 expression vector) in the ratio of 5∶1 as indicated above. For experiments involving co-regulators, 50 ng of co-activator plasmids (25 ng each of GRIP-1 and SRC-1) along with pMMTV-neo-luc (250 ng) were transfected to LNCaP cells. To evaluate the transfection efficiency, 500 ng/105 cells of the SV40 promoter-Renilla luciferase (pRL-SV40) vector (Promega Madison, USA) were co-transfected as internal control. […] Each experimental point was performed in triplicate and varied by less than 10%. The values of luciferase for each lysates were normalized to the Renilla luciferase activity.

AR in LNCaP cells = test: Immunofluorescence staining of endogenous AR; format: cell-based, human; conditions: varying doses of conjugate, 20 μM RESV, DHT
Protocol: The cells were then incubated with AR rabbit polyclonal antibody diluted 1∶200 in blocking buffer for 1 h at RT. Finally, the cells were washed with PBS and incubated with FITC-labelled anti-rabbit secondary antibody diluted 1∶1000 in blocking buffer for 30 min at room temperature. The cells were then observed under a fluorescence microscope (Zeiss, Axiovert 25, Germany).

[1] = system: p53 protein in LNCaP cells; test: Immunoblot of p53 with p53 inhibitor; format: cell-based, human; conditions: 20 μM PFT-α, 20 and 40 μM conjugate, 24 h
Protocol: The whole-cell lysates were prepared as described previously in immunoprecipitation (IP) buffer containing 50 mM Tris-HCl (pH 8.0), 150 mM NaCl, 5 mM EDTA, and 1% Triton X-100. Protein aliquots of 500 μg were then incubated overnight at 4°C using 2 μg of antibody directed against AR. The Protein A-Cl Agarose beads were then added and further incubated for 6 h at 4°C. The immunoprecipitates were washed four times with the IP buffer and the immunocomplexes were recovered by boiling in SDS sample buffer. Finally the western blot was carried out using anti-AR, anti-SRC-1 and anti-GRIP-1 antibodies (Santa Cruz, CA, USA). For western blot analysis, the cell lysates were prepared after harvesting them in lysis buffer. About 40 μg of total protein was electrophoresed by 12% SDS-PAGE, and the western blotting was carried out using standard protocol. In brief, the analyzed proteins were transferred to nylon membranes. […]
Since there was no significant difference in the number of apoptotic cells between conjugate treated LNCaP (wild type p53) and PC-3 (p53 null) cells (p<0.05), it was intriguing to check if p53 has any role in conjugate induced apoptosis of PCa cells. […] Next we determined the effect of p53-inhibition on conjugate induced cell death by using MTT assay.

reduction of DHT-mediated luciferase activity (hAR in PC-3 cells; PC-3, 5 μM): 19%
reduction of DHT-mediated luciferase activity (hAR in PC-3 cells; PC-3, 10 μM): 31%
reduction of DHT-mediated luciferase activity (hAR in PC-3 cells; PC-3, 20 μM): 63%
reduction of DHT-mediated luciferase activity (hAR in PC-3 cells; PC-3, 30 μM): 70%
reduction of DHT-mediated luciferase activity (hAR in PC-3 cells; PC-3, 40 μM): 80%
SMILES: COc1cc(/C=C/c2ccc(O)c(/C=N/NC(N)=S)c2)cc(OC)c1 [conjugate, Pterostilbene-isothiocyanate conjugate]
AR immunofluorescence intensity (AR in LNCaP cells): almost complete abolition of fluorescent intensity
expression of p53 protein [1]: dose dependent increase
